Results taken from patent US8809336B2, “Ortho-condensed pyridine and pyrimidine derivatives (e.g., purines) as protein kinases inhibitors” (Astex Therapeutics Limited, priority 2004, dated 2014).
pIC50: −log10 of the molar value. Where two headings read alike, the source gives them in different places.

How the values were obtained:
PKA catalytic domain = target: T1, PKA catalytic domain (Homo sapiens, UniProt P17612); experiment: Measurement of PKA kinase inhibitory activity (IC50), 33P-ATP filter plate assay; type: biochemical
T1 construct: using the PKA catalytic domain from Upstate Biotechnology (#14-440); purchased Upstate Biotechnology 14-440
Method: A final concentration of 1 nM enzyme is used in a buffer that includes 20 mM MOPS pH 7.2, 40 μM ATP/γ^33P-ATP and […] substrate. Compounds are added in dimethylsulphoxide (DMSO) solution to a final DMSO concentration of 2.5%. The reaction is allowed to proceed for 20 minutes before addition of excess orthophosphoric acid to quench activity. Unincorporated γ^33P-ATP is then separated from phosphorylated proteins on a Millipore MAPH filter plate. The plates are washed, scintillant is added and the plates are then subjected to counting on a Packard Topcount.

PKB-PIF fusion protein = target: T2, PKB-PIF fusion protein (Homo sapiens, UniProt P31751); experiment: Measurement of PKB kinase inhibitory activity (IC50), 33P-ATP phosphocellulose filter assay; type: biochemical
T2 construct: PIF (fusion partner); made in house
Method: The inhibition of protein kinase B (PKB) activity by compounds can be determined essentially as described by Andjelkovic et al. (Mol. Cell. Biol. 19, 5061-5072 (1999)) but using a fusion protein described as PKB-PIF and described in full by Yang et al (Nature Structural Biology 9, 940-944 (2002)). […] A final concentration of 0.6 nM enzyme is used in a buffer that includes 20 mM MOPS pH 7.2, 30 μM ATP/γ^33P-ATP and 25 μM substrate.
Compounds are added in DMSO solution to a final DMSO concentration of 2.5%. The reaction is allowed to proceed for 20 minutes before addition of excess orthophosphoric acid to quench activity. The reaction mixture is transferred to a phosphocellulose filter plate where the peptide binds and the unused ATP is washed away. After washing, scintillant is added and the incorporated activity measured by scintillation counting.
The % inhibition of the PKB activity is calculated and plotted in order to determine the concentration of test compound required to inhibit 50% of the PKB activity (IC50).

[1] = 1 nM enzyme, 40 μM ATP, 20 minutes, read-out: IC50, inhibition of PKA activity
[2] = 0.6 nM enzyme, 30 μM ATP, 25 μM AKTide-2T substrate, 20 minutes, read-out: IC50, inhibition of PKB activity

T2 sequence (P31751 with tags, fused parts or gaps limits assumed): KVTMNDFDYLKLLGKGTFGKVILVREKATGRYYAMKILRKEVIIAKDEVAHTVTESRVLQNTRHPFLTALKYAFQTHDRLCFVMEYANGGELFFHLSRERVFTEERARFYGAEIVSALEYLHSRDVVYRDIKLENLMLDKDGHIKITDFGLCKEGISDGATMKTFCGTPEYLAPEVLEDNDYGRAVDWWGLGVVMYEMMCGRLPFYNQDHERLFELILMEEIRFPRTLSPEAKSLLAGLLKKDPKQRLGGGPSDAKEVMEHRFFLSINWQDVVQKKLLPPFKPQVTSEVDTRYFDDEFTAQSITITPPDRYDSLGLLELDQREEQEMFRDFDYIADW

SMILES | pIC50 (PKA catalytic domain; [1]) | pIC50 (PKB-PIF fusion protein; [2]) | pIC50 (PKA catalytic domain) | pIC50 (PKB-PIF fusion protein)
NCC1(c2ccc(C(F)(F)F)cc2)CCN(c2ncnc3[nH]ccc23)CC1 [Example 32, C-[1-(7H-Pyrrolo[2,3-d]pyrimidin-4-yl)-4-(4-trifluoromethylphenyl)piperidin-4-yl]methylamine] | > 5.00 | > 5.00 |  | 
COc1ccc(C2(CN)CCN(c3ncnc4[nH]ccc34)CC2)cc1 [Example 38, C-[4-(4-Methoxyphenyl)-1-(7H-pyrrolo[2,3-d]pyrimidin-4-yl)piperidin-4-yl]methylamine] | > 5.00 | > 5.00 |  | 
NCC1(c2ccc(OCc3ccccc3)cc2)CCN(c2ncnc3[nH]ccc23)CC1 [Example 40, C-[4-(4-Benzyloxyphenyl)-1-(7H-pyrrolo[2,3-d]pyrimidin-4-yl)piperidin-4-yl]methylamine] | > 5.00 | > 5.00 |  | 
CNCC1(c2ccc(Cl)cc2)CCN(c2ncnc3[nH]ccc23)CC1 [Example 42, [4-(4-Chloro-phenyl)-1-(7H-pyrrolo[2,3-d]pyrimidin-4-yl)-piperidin-4-ylmethyl]-methyl-amine] |  |  | > 5.00 | > 5.00

Further lines, with some results ahead:

pIC50 (PKA catalytic domain; [1]) | pIC50 (PKB-PIF fusion protein; [2]) | SMILES | pIC50 (PKA catalytic domain) | pIC50 (PKB-PIF fusion protein)
> 5.00 | > 5.00 | NCC1(c2cccc(Cl)c2)CCN(c2ncnc3[nH]ccc23)CC1 [Example 26, C-[4-(3-Chlorophenyl)-1-(7H-pyrrolo[2,3-d]pyrimidin-4-yl)piperidin-4-yl]methylamine] |  | 
> 5.00 | > 5.00 | NCC1(c2ccc(Cl)c(Cl)c2)CCN(c2ncnc3[nH]ccc23)CC1 [Example 28, C-[4-(3,4-Dichlorophenyl)-1-(7H-pyrrolo[2,3-d]pyrimidin-4-yl)piperidin-4-yl]methylamine] |  | 
> 5.00 | > 5.00 | NCC1(c2ccc(OC(F)(F)F)cc2)CCN(c2ncnc3[nH]cnc23)CC1 [Example 31, C-[1-(9H-Purin-6-yl)-4-(4-trifluoromethoxyphenyl)piperidin-4-yl]methylamine] |  | 
> 5.00 | > 5.00 | CN(C)C1(Cc2ccc(Cl)cc2)CCN(c2ncnc3[nH]ccc23)CC1 [Example 44, [4-(4-Chlorobenzyl)-1-(7H-pyrrolo[2,3-d]pyrimidin-4-yl)-piperidin-4-yl]-dimethylamine] |  | 
